In this test the test system is brain tumors. Nature of the test: Size change in brain tumor and survival rate in rats having brain tumors. The format is in vivo. The conditions noted are these: (a) drug injected by intravenous injection, rats (FIGS. 27, 28). From the text: FIGS. 27 to 29 show the result of comparing the size change in brain tumor and the survival rate according to four treatment methods applied to rats having brain tumors.

Consider `COc1cccc2c1C(=O)c1c(O)c3c(c(O)c1C2=O)C[C@@](O)(C(=O)CO)C[C@@H]3O[C@H]1C[C@H](N)[C@H](O)[C@H](C)O1` [drug, doxorubicin], for which the “size change in brain tumor” value is reported as “rapidly increases with time”.

These data come from US20200030236A1, “BIOPATCH, BIOHEATER, BIOSENSOR AND BIOELECTRONIC PATCH DEVICE” (SEOUL NATIONAL UNIVERSITY R&DB FOUNDATION, priority 2016, published 2020).
